Laboratory results published in US10513513B2, “Salts of quinazoline derivative or crystals thereof, and the process for producing thereof” (Shionogi & Co., Ltd., priority 2015, dated 2019).
Structures can show the parent of a compound that is named as a salt.

Key:
Type in all cases: physicochemical
[1] = Moisture sorption-desorption isothermal measurement; details: for Ratio of increased mass in moisture desorption isothermal measurement: ratio at 0% Target % P/P0 after desorption, 25° C.; for Ratio of increased mass (moisture sorption): mass increase at 95% Target % P/P0 relative to mass at 0% Target % P/P0, 25° C.
Text: (Moisture Sorption-Desorption Isothermal Measurement)
Moisture sorption-desorption isothermal measurement is measuring the weight changes of a subject solid under various relative humidity conditions, and is a method for determining moisture sorption-desorption behaviors.
As a basic measurement method, the relative humidity is increased in increments of 5% or 10% based on the dry weight at 0% Target % P/P0 (relative humidity 0%), and after the weights at respective relative humidities are stabilized, the amount of adsorbed water can be obtained from the weight increased from a reference value. Similarly, it is possible to measure the amount of desorbed water by reducing the relative humidity in increments of 5% or 10% from 100% Target % P/P0.
Sorption and desorption isotherms can be obtained by plotting the weight change values at respective relative humidities. From the results, it is possible to investigate the sorption and desorption phenomena of attached moisture at respective humidities. Also, when anhydride crystals and hydrate crystals undergo mutual crystal transition due to humidity, it is possible to calculate the humidity, at which crystal transition occurs, and the amount of water of crystallization.
Since the sorption and desorption of attached water and water of crystallization are affected by the particle size, degree of crystallinity, crystal habit, and the like, the measurement results may slightly vary.
Moisture sorption-desorption isothermal measurement was performed on the crystals obtained in each Example. About 10 mg of a sample was weighed onto a sample pan, and measurement was performed. Measurement conditions are as shown below.
Device: DVS Advantage by Surface Measurement Systems Ltd.
Measurement points: from 0% Target % P/P0 to 95% Target % P/P0 in increments of 5%, then from 95% Target % P/P0 to 0% Target % P/P0 in decrements of 5% Temperature: 25° C. […]

[2] = Light exposure test (photostability); details: for E isomer (Retention time 38 minutes), Light exposed sample: D65 lamp, total illuminance about 1.2 million lx·hr; for E isomer (Retention time 38 minutes), Light exposed sample / E isomer (Retention time 38 minutes), Dark control: HPLC Method B; for E isomer (Retention time 38 minutes), Increased amount: light exposed sample minus dark control
Text: The photostability test is one of the methods for measuring chemical or physicochemical changes of an active pharmaceutical ingredient or a pharmaceutical preparation caused by light exposure to evaluate properties of a sample with respect to light. In the photostability test, a sample such as an active pharmaceutical ingredient or a pharmaceutical preparation is irradiated with light at a specified output for a certain period of time. Properties of the sample with respect to light can be evaluated by analyzing the impurities and analogous substances, crystal form, color difference, and the like of the sample by scientific techniques (such as high performance liquid chromatography, X-ray crystal diffraction, and colorimetry) when a specified total illuminance is reached. In order to verify that a specified amount of light exposure is attained, the amount of light exposure is managed using a radiometer or a luminometer, and a test is carried out using an actinometric system.
(Photostability Measurement)
A photostability test was performed using a photostability tester (model LTL200A5-15WCD) by Nagano Science. A D65 lamp was used as an irradiation source of light, and light was irradiated to a total illuminance of about 1.2 million 1×·hr under 4000 lx·hr conditions.
The quality evaluations of the respective crystals were carried out using HPLC (Method B).

[3] = Test of solubility in organic solvent; details: stirred at 22° C. for 4 hours, supernatant, HPLC Method B; for Concentration (% by weight) in 2-Propanol: suspended in 2-propanol; for Concentration (% by weight) in Acetone: suspended in acetone; for Concentration (% by weight) in Ethyl acetate: suspended in ethyl acetate
Method: (Test of Solubility in Organic Solvent)
The monohydrochloride crystal Form I, monohydrochloride crystal Form V, and free base crystals of Compound (I) were each suspended in 2-propanol, acetone, and ethyl acetate, and stirred at 22° C. for 4 hours, and the concentrations of supernatants were measured (HPLC: Method B).

[4] = Test of solubility in water for injection; details: stirred at 37° C. for 1 hour, HPLC Method A
Method: (Test of Solubility in Water for Injection)
1. Preparation of Calibration Curve
First, 5 mg of monohydrochloride crystal Form I of Compound (I) was precisely weighed and dissolved in a mixed solution of acetonitrile:water (1:1), and thus a 500 μg/mL solution was obtained. The obtained solution was diluted with a mixed solution of acetonitrile:water (1:1) such that the concentrations of the compound were 5 and 50 μg/mL. Accordingly, a standard calibration curve was prepared according to HPLC measurement conditions (Method A). The same operation was carried out for monohydrochloride crystal Form II, monohydrochloride crystal Form V, monohydrochloride crystal Form VI, mono-p-toluenesulfonate crystal Form I, and free base crystals.
2. Preparation of Sample Solution
First, 1 mg of monohydrochloride crystal Form I of Compound (I) was precisely weighed and transferred to a vial having a volume of 4 mL. Then, 1 mL of water (water for injection) was added, and the mixture was stirred at 37° C. for 1 hour. After being stirred, this suspension was filtered, and the peak area was measured under HPLC measurement conditions (Method A) using a solution obtained by diluting the filtrate two-fold with a mixed solution of acetonitrile:water (1:1) as a sample. The concentration was calculated using the peak area and the calibration curve prepared above. The same operation was carried out for monohydrochloride crystal Form II, monohydrochloride crystal Form V, monohydrochloride crystal Form VI, mono-p-toluenesulfonate crystal Form I, and free base crystals.

[5] = Observation of hygroscopicity of isolated salt; details: isolated solid
Method: Ethyl acetate (8 mL) was added to Compound 3 (4.12 g, 17.7 mmol), and the mixture was stirred. When 4 mol/L a solution (16 mL) of hydrochloric acid in ethyl acetate was added, white solids were precipitated. Ethyl acetate (8 mL) was added, and then the mixture was stirred for about 4 hours at room temperature.
Benzenesulfonic acid (78.57 mg) and tetrahydrofuran (0.2 mL) were stirred at 50° C., and a tetrahydrofuran (0.2 mL) solution of Compound 3 (51.54 mg, 0.222 mmol) was added dropwise. After about 20 minutes, cooling the mixture to room temperature caused solids to precipitate. Then, 0.15 mL of tetrahydrofuran was added, and the mixture was stirred at 50° C. for 10 minutes and cooled to 10° C.

[6] = Stability test of crystals on heating (NMR before/after); details: heated at 50° C. for 8 hours
Method: (Results of Stability Test)
The crystals of Compound (IIA) obtained in Example 21 were heated at 50° C. for 8 hours and measured NMR data.

[7] = listed as mono-p-toluenesulfonate crystal Form I
[8] = listed as Monohydrochloride form crystal VI
[9] = listed as Monohydrochloride form crystal V

Ratio of increased mass in moisture desorption isothermal measurement [1]	E isomer (Retention time 38 minutes), Light exposed sample [2] [area %]	E isomer (Retention time 38 minutes), Increased amount [2] [area %]	Concentration (% by weight) in 2-Propanol [3] [% by weight]	Concentration (% by weight) in Acetone [3] [% by weight]	Concentration (% by weight) in Ethyl acetate [3] [% by weight]	Ratio of increased mass (moisture sorption) [1]	E isomer (Retention time 38 minutes), Dark control [2] [area %]	Solubility in water for injection [4] [µg/mL]	SMILES	other results
about 0.06%						small		12.9	CC#C/C(=N\OC[C@H]1COCCN1)c1ccc2ncnc(Nc3ccc(OCc4cccc(F)c4)c(Cl)c3)c2c1 [Monohydrochloride crystal Form VI]	E isomer (Retention time 38 minutes), Light exposed sample [2, 8]: 1.80 area %; E isomer (Retention time 38 minutes), Dark control [2, 8]: 1.16 area %; E isomer (Retention time 38 minutes), Increased amount [2, 8]: 0.64 area %; Solubility in water for injection ([4]; listed as monohydrochloride crystal Form VI): high solubilities
about 0.05%			0.01	0.02	0.00	small		14.0	CC#C/C(=N\OC[C@H]1COCCN1)c1ccc2ncnc(Nc3ccc(OCc4cccc(F)c4)c(Cl)c3)c2c1 [Monohydrochloride crystal Form V]	E isomer (Retention time 38 minutes), Light exposed sample [2, 9]: 1.19 area %; E isomer (Retention time 38 minutes), Dark control [2, 9]: 0.13 area %; E isomer (Retention time 38 minutes), Increased amount [2, 9]: 1.06 area %; Solubility in water for injection ([4]; listed as monohydrochloride crystal Form V): high solubilities
about 0.13%									CC#C/C(=N\OC[C@H]1COCCN1)c1ccc2ncnc(Nc3ccc(OCc4cccc(F)c4)c(Cl)c3)c2c1 [Monosulfate crystal]	Ratio of increased mass (moisture sorption) ([1]; listed as monosulfate crystals): about 3.3%

Second part, the compound before the results:

SMILES	Ratio of increased mass in moisture desorption isothermal measurement [1]	E isomer (Retention time 38 minutes), Light exposed sample [2] [area %]	E isomer (Retention time 38 minutes), Increased amount [2] [area %]	Concentration (% by weight) in 2-Propanol [3] [% by weight]	Concentration (% by weight) in Acetone [3] [% by weight]	Concentration (% by weight) in Ethyl acetate [3] [% by weight]	Ratio of increased mass (moisture sorption) [1]	E isomer (Retention time 38 minutes), Dark control [2] [area %]	Solubility in water for injection [4] [µg/mL]	other results
CC#C/C(=N\OC[C@H]1COCCN1)c1ccc2ncnc(Nc3ccc(OCc4cccc(F)c4)c(Cl)c3)c2c1 [Free base crystal]	about 0.16%	2.59	2.59	0.49	8.1	3.3				Solubility in water for injection ([4]; listed as free base crystals): not dissolved in water for injection at all
NOC[C@H]1COCCN1 [Compound (II′)]										Hygroscopicity (observation) [5]: absorbed moisture and deliquesced
NOC[C@H]1COCCN1 [Compound (IIA)]										Stability of crystals on heating (change of NMR peaks) [6]: no changes to the peaks were observed
NOC[C@H]1COCCN1 [Compound (II″)]										Hygroscopicity (observation) [5]: highly hygroscopic
CC#C/C(=N\OC[C@H]1COCCN1)c1ccc2ncnc(Nc3ccc(OCc4cccc(F)c4)c(Cl)c3)c2c1 [Monohydrochloride crystal Form II]	about 0.05%	1.21	−0.23				small	1.44	56.0	Solubility in water for injection ([4]; listed as monohydrochloride crystal Form II): high solubilities
CC#C/C(=N\OC[C@H]1COCCN1)c1ccc2ncnc(Nc3ccc(OCc4cccc(F)c4)c(Cl)c3)c2c1 [Mono-p-toluenesulfonate crystal Form I]	about 0.12%	32.86	32.76				small	0.10	26.6	E isomer (Retention time 38 minutes), Increased amount [2, 7]: about 33 area %; Solubility in water for injection [4, 7]: high solubilities
CC#C/C(=N\OC[C@H]1COCCN1)c1ccc2ncnc(Nc3ccc(OCc4cccc(F)c4)c(Cl)c3)c2c1 [Monohydrochloride crystal Form I]	about 0.08%	4.41	3.78	0.03	0.08	0.01	small	0.63	34.5	Solubility in water for injection ([4]; listed as monohydrochloride crystal Form I): high solubilities
